Target: T1, Zinc finger protein mex-5 (Caenorhabditis elegans, UniProt Q9XUB2)
T1 sequence (Q9XUB2 whole entry): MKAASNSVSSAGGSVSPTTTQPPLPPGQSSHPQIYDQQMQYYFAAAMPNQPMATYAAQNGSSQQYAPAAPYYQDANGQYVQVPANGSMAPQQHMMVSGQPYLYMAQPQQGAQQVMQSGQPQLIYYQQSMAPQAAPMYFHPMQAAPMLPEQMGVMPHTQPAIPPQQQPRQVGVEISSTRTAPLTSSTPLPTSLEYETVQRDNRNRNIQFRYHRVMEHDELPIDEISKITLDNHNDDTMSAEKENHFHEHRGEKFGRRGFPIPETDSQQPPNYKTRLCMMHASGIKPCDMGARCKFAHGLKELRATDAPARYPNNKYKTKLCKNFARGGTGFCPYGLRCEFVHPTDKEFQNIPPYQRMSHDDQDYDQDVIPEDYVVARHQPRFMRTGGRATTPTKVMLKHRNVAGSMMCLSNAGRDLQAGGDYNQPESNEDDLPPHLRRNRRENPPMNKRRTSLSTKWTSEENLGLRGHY
Assay: potency of MEX-5 RNA-binding blockers – biochemical, C. elegans, fluorescence polarization, dose response (AID 1960)

| SMILES | EC50 |
| --- | --- |
| COc1ccc(OC)c(N2C(=O)C(=Cc3ccco3)C(=O)NC2=S)c1 [MLS001197216] | 10.8 µM |
| Cc1[nH]n(C(N)=S)c(=O)c1N=Nc1ccc(S(N)(=O)=O)cc1 [3-methyl-5-oxidanylidene-4-[(4-sulfamoylphenyl)diazenyl]-4H-pyrazole-1-carbothioamide] | 8.86 µM |
| CCOc1cccc(C2C(C(=O)c3ccc(C)o3)C(=O)C(=O)N2c2nccs2)c1 (stereo unspecified) [2-(3-ethoxyphenyl)-3-(5-methylfuran-2-yl)carbonyl-4-oxidanyl-1-(1,3-thiazol-2-yl)-2H-pyrrol-5-one] | 1.27 µM |
| O=C1C([N+](=O)[O-])=CC(Cl)=CC1/C=N/NC(=O)C(O)(c1ccccc1)c1ccccc1 (stereo unspecified) [N''''-[(E)-(3-chloro-5-nitro-6-oxocyclohexa-2,4-dien-1-ylidene)methyl]-2-hydroxy-2,2-diphenylacetohydrazide] | 40.2 µM |
| Cc1ccc(C(=O)Cc2nc3cc(C)ccc3oc2=O)cc1 [(3Z)-3-[2-keto-2-(p-tolyl)ethylidene]-6-methyl-4H-1,4-benzoxazin-2-one] | 1.64 µM |
| C=CCc1cccc(C=Nn2cnnc2)c1O [(6E)-2-allyl-6-[(1,2,4-triazol-4-ylamino)methylene]cyclohexa-2,4-dien-1-one] | 238 µM |
| Cc1n[nH]c(C)c1Sc1ccccc1/N=C/C1C=C(Cl)C=C([N+](=O)[O-])C1=O (stereo unspecified) [(6E)-4-chloranyl-6-[[[2-[(3,5-dimethyl-1H-pyrazol-4-yl)sulfanyl]phenyl]amino]methylidene]-2-nitro-cyclohexa-2,4-dien-1-one] | 7.57 µM |
| COc1cccc(CN2C(=O)C3(C4=C(CCCC4=O)OC(=N)C3C#N)c3ccccc32)c1 (stereo unspecified) [2-amino-1'-(3-methoxybenzyl)-2',5-dioxo-1',2',5,6,7,8-hexahydrospiro[chromene-4,3'-indole]-3-carbonitrile] | > 300 µM |
| CCOc1ccc(N2C(=O)C(=Cc3ccco3)C(=O)NC2=S)cc1 [MLS001205052] | 178 µM |
| COC1=CC([N+](=O)[O-])=CC(/C=N/NC(=O)CC#N)C1=O (stereo unspecified) | > 300 µM |
| N#CC1=C2CCOCC2C(c2cccnc2)C(C#N)(C#N)C1=N (stereo unspecified) [6-Amino-8-pyridin-3-yl-8,8a-dihydro-1H,3H-isochromene-5,7,7-tricarbonitrile] | > 300 µM |
| CC1(C)CC(=O)C2=C(C1)OC(=N)C(C#N)[C@@]21C(=O)N(CC(N)=O)c2ccccc21 (stereo partly drawn) [2-[(4R)-2-amino-3-cyano-2',5-diketo-7,7-dimethyl-spiro[6,8-dihydrochromene-4,3'-indoline]-1'-yl]acetamide] | > 300 µM |
| O=C1NC(=S)N(c2ccccc2)C(=O)C1=Cc1ccco1 [(5E)-5-(2-furanylmethylidene)-1-phenyl-2-sulfanylidene-1,3-diazinane-4,6-dione] | 254 µM |
| Cc1ccc(C(=O)C2C(=O)C(=O)N(Cc3ccco3)C2c2ccc(N(C)C)cc2)o1 (stereo unspecified) [2-[4-(dimethylamino)phenyl]-1-(2-furanylmethyl)-4-hydroxy-3-[(5-methyl-2-furanyl)-oxomethyl]-2H-pyrrol-5-one] | > 300 µM |
| C=CCOc1ccc(C2C(C(=O)c3cccs3)C(=O)C(=O)N2c2nnc(C)s2)cc1 (stereo unspecified) [1-(5-methyl-1,3,4-thiadiazol-2-yl)-4-oxidanyl-2-(4-prop-2-enoxyphenyl)-3-thiophen-2-ylcarbonyl-2H-pyrrol-5-one] | 3.06 µM |
| CCCCOc1cccc(C2C(C(=O)c3ccc(C)o3)C(=O)C(=O)N2c2nnc(C)s2)c1 (stereo unspecified) [2-(3-butoxyphenyl)-3-(5-methylfuran-2-yl)carbonyl-1-(5-methyl-1,3,4-thiadiazol-2-yl)-4-oxidanyl-2H-pyrrol-5-one] | 77.4 µM |
| CSc1nnc(N2C(=O)C(=O)C(C(=O)c3ccco3)C2c2cccc(Cl)c2)s1 (stereo unspecified) [2-(3-chlorophenyl)-3-(furan-2-carbonyl)-4-hydroxy-1-(5-methylsulfanyl-1,3,4-thiadiazol-2-yl)-2H-pyrrol-5-one] | 14.3 µM |
| Cc1ccc(NNC2=Nc3ccccc3C2=O)cc1 [2-[(4-methylphenyl)hydrazo]-3-indolone] | 25.7 µM |
| CCn1nc(C)c(C=C2CCCC3=C2OC(=N)C(C#N)C3c2c(C)nn(CC)c2C)c1C (stereo unspecified) [(8E)-2-amino-4-(1-ethyl-3,5-dimethyl-1H-pyrazol-4-yl)-8-[(1-ethyl-3,5-dimethyl-1H-pyrazol-4-yl)methylene]-5,6,7,8-tetrahydro-4H-chromene-3-carbonitrile] | 51.8 µM |
| COc1ccc(N=CCC(=O)c2ccc(C)cc2)cc1OC [SMR000269732] | > 300 µM |
| CCCCN1C(=O)NC(=O)C(=CNNC(=O)c2ccncc2)C1=O [Isonicotinic acid N'-[1-butyl-2,4,6-trioxo-tetrahydro-pyrimidin-(5E)-ylidenemethyl]-hydrazide] | > 300 µM |
| O=C1NC(=O)N(c2ccc(F)cc2)C(=O)C1=Cc1c[nH]c2ccccc12 [SMR000556295] | > 300 µM |
| CCCCN1C(=O)/C(=C2/Sc3ccccc3N2C)SC1=Nc1nnc[nH]1 [SMR000282142] | 39.1 µM |

| SMILES | EC50 |
| --- | --- |
| COc1ccccc1N1C(=O)C(=Nc2ccccc2O)C(Cl)C1=O (stereo unspecified) [3-chloranyl-4-[(2-hydroxyphenyl)amino]-1-(2-methoxyphenyl)pyrrole-2,5-dione] | 8.19 µM |
| Cc1nnc(N2C(=O)C(=O)C(C(=O)c3ccco3)C2c2cccc3ccccc23)s1 (stereo unspecified) [3-(furan-2-carbonyl)-4-hydroxy-1-(5-methyl-1,3,4-thiadiazol-2-yl)-2-naphthalen-1-yl-2H-pyrrol-5-one] | > 300 µM |
| O=C1CC(=O)c2c(O)cc(O)c(O)c2C1=O [4,5,7,8-tetrahydroxy-1,2-naphthoquinone] | 0.899 µM |
| C=CCn1c(=O)c(=Cc2ccsc2)s/c1=C(\C#N)C(=O)NCCN1CCOCC1 [2-[3-allyl-4-keto-5-(3-thenylidene)thiazolidin-2-ylidene]-2-cyano-N-(2-morpholinoethyl)acetamide] | 21.9 µM |
| COc1cc(C2C3=C(CC(C)(C)CC3=O)OC(=N)C2C#N)cc2c1OCO2 (stereo unspecified) | > 300 µM |
| CCC(=CC=C[C@@H]1C=C[C@@H]2CCC[C@H]2[C@@H]1C(=O)c1ccc[nH]1)[C@@H]1O[C@@H]([C@@H](C)C(=O)O)CC[C@@H]1C [2-(6-{1-ethyl-4-[4-(1H-pyrrol-2-ylcarbonyl)-2,3,3a,4,5,7a-hexahydro-1H-inden-5-yl]-1,3-butadienyl}-5-methyltetrahydro-2H-pyran-2-yl)propanoate] | 1.16 µM |
| COc1ccc(C2C3=C(CC(C)CC3=O)OC(=N)C2C#N)c(OC)c1OC (stereo unspecified) [2-amino-5-keto-7-methyl-4-(2,3,4-trimethoxyphenyl)-4,6,7,8-tetrahydrochromene-3-carbonitrile] | > 300 µM |
| CN(C)[C@@H]1C(=O)C(C(N)=O)C(=O)[C@@]2(O)C(=O)C3C(=O)c4c(O)cccc4[C@@](C)(O)C3C(O)C12 (stereo partly specified) [SMR000875333] | 20.5 µM |
| C=CCSc1nnc(N2C(=O)C(=O)C(C(=O)c3ccco3)C2c2ccc(F)cc2)s1 (stereo unspecified) [1-[5-(allylthio)-1,3,4-thiadiazol-2-yl]-5-(4-fluorophenyl)-4-(2-furoyl)-3-hydroxy-3-pyrrolin-2-one] | 87.6 µM |
| O=C(N[N-][CH+]c1cc([N+](=O)[O-])ccc1N1CCCC1)c1ccccn1 [MLS000684285] | 70.5 µM |
| O=C(NN=Cc1c(O)ccc2ccccc12)c1cncc(Br)c1 [5-bromo-N'-[(Z)-(2-oxo-1-naphthalenylidene)methyl]-3-pyridinecarbohydrazide] | 256 µM |
| COc1cc(C2C3=C(CCCC3=O)OC(=N)C2C#N)ccc1OC(=O)N1CCOCC1 (stereo unspecified) [4-(2-amino-3-cyano-5-oxo-5,6,7,8-tetrahydro-4H-chromen-4-yl)-2-methoxyphenyl morpholine-4-carboxylate] | > 300 µM |
| O=C1c2cccc([N+](=O)[O-])c2C(=O)N1n1c(O)csc1=S [2-(4-keto-2-thioxo-thiazolidin-3-yl)-4-nitro-isoindoline-1,3-quinone] | 24.8 µM |
| CCOC(=O)C1=C(C)OC(=N)C(C#N)C1c1ccc(O)c(OC)c1 (stereo unspecified) [6-amino-5-cyano-4-(4-hydroxy-3-methoxyphenyl)-2-methyl-4H-pyran-3-carboxylic acid ethyl ester] | > 300 µM |
| COc1cc(OC)c(C2C3=C(CC(C)(C)CC3=O)OC(=N)C2C#N)cc1OC (stereo unspecified) [SMR000054706] | > 300 µM |
| CN(C)c1ccc(C=NN(CCC(=O)NC(C)(C)C)C2=NS(=O)(=O)c3ccccc32)cc1 [SMR000556213] | 36.3 µM |
| COc1ccc(OC)c(NC=C2C(=O)NC(=S)N(Cc3ccccc3)C2=O)c1 | > 300 µM |
| O=C(/C=C/c1ccco1)NCC(=O)NNC1=c2ccccc2=NC1=O [MLS001075666] | 5.49 µM |
| Cc1c(NC=C2C(=O)NC(=O)N(Cc3ccco3)C2=O)c(=O)n(-c2ccccc2)n1C [(5E)-1-(2-furfuryl)-5-[[(3-keto-1,5-dimethyl-2-phenyl-3-pyrazolin-4-yl)amino]methylene]barbituric acid] | > 300 µM |
| O=C(c1ccccc1)[C@@H]1c2c(c(O)n(-c3ccc(F)cc3)c2O)C2CCCN21 (stereo partly specified) [MLS000769629] | 40.9 µM |
| C=c1cc(O)c(CN(C)C)c2oc(=Cc3ccco3)c(O)c12 [(2Z)-7-[(dimethylamino)methyl]-2-(furan-2-ylmethylidene)-6-hydroxy-4-methyl-1-benzofuran-3-one] | 39.8 µM |
| COc1ccc(C2C3=C(CC(C)(C)CC3=O)OC(=N)C2C#N)c(OC)c1OC (stereo unspecified) [2-amino-5-keto-7,7-dimethyl-4-(2,3,4-trimethoxyphenyl)-6,8-dihydro-4H-chromene-3-carbonitrile] | > 300 µM |
| Cn1c2cc(=N)ccc-2c2ccc(N)cc2c1-c1ccccc1 [(3-amino-5-methyl-6-phenyl-phenanthridin-5-ium-8-yl)amine;bromide] | 5.36 µM |
